In US20190055517A1, “Cell Line of M2c Macrophage and Its Applications” (National Pingtung University of Science and Technology, priority 2017, published 2019):

What was measured:
[1] = tested on: Raw264.7 macrophages; experiment: H2O2 induction of apoptotic cells (annexin-V / 7-AAD flow cytometry); type: cell-based, murine; conditions: 1.5 mM H2O2 versus 0.5 and 1 mM, 12 hours, FIG. 19
Protocol: Inducing apoptotic cells: minor changes were made from steps of obtaining apoptotic cells based on previous studies (Piao et al., 2011 and Fong et al 2007), detailed steps comprising: culture 1.5×10^6 RAW264.7 macrophages with DMEM medium containing 10% FBS in incubator (37° C., 5% CO2). After culturing overnight, treat with 0.5, 1, 1.5 mM H2O2 respectively in DMEM for 12 hours. Next, remove the DMEM medium containing H2O2 and wash the cells with PBS buffer, then use micropipette to transfer cells to 15 ml centrifuge tube and centrifuge cells at 4° C. for 5 mins at rotating speed of 500×g. Remove the supernatant and resuspend the cells with 95 μl […]. Following that, dye the cells with fluorescence marker annexin-V and 7-AAD (BD Bioscience) for 20 mins on ice, avoiding light. After marking the cells, use flow cytometry (FACS BD ARIA II) to detect fluorescence performance. Analysed by software CellQuest (BD Bioscience). If the cells were positive for annexin-V and negative for 7-AAD, the cells will be identified as early apoptotic cells; if the cells were positive for annexin-V and positive for 7-AAD, the cells would be identified as late apoptotic cells.

[2] = tested on: murine M2 macrophage; experiment: Phagocytosis of FITC-Latex beads with PE-anti-MERTK staining (flow cytometry, fluorescence microscopy); type: cell-based; conditions: fluorescence microscope, PE-MERTK, FIG. 18
Protocol: In this example, experiment was performed to evaluate the effect of baicalin induced differentiated […] macrophages in promoting phagocytosis. Treatment conditions of drugs in each group is listed in chart 2, and control group is cultured in RPMI1640 (10% FCS) without any drugs. After treatment, collect 5×10^5 treated cells respectively and add 50 μl FITC-Latex beads (Phagocytosis assay kit (IgG FITC), Cayman Chemical, USA.) to perform phagocytosis experiment for 24 hours, and then use PE-anti-MERTK antibody to mark the cells and observe the fluorescence expression with flow cytometry.

[3] = tested on: murine M2 macrophage; experiment: Macrophage phenotype by flow cytometry (CD86, CD206) after drug-induced differentiation; type: cell-based; conditions: conditions of chart 2, p<0.05, FIG. 3
Protocol: (§1) Use PBS containing 0.5% BSA to flush out bone marrow cells from murine (C57BL/6J, 8-20 weeks, Taiwan National Laboratory Animal Center) femur, then use Ficoll-Hypaque (GE healthcare, SWEDEN) to isolate monocytes.
(§2) Then, incubate 2×10^6 monocytes in 50 ng/ml M-CSF contained RPMI 1640 (10% FCS) medium under 37° c., 5% CO2 for seven days to induce M2 macrophage polarization. On the eighth day, collect 2×10^5 M2 macrophage and incubate them in RPMI 1640 (10% FCS) medium with Baicalin (50 μM, Tokyo Chemical Industry, JAPAN) for 24 hours. Baicalin will induce M2 macrophage to differentiate into M2C macrophage.
Embodiment 1 is prepared by the steps described above, isolate monocytes from murine bone marrow and use M-CSF to induce differentiation of M2 macrophage, and then use baicalin to induce M2C macrophage polarization. In comparison 1, incubate murine M2 macrophage in RPMI 1640 (10% FCS) containing LPS (lipopolysaccharide, 1 μg/ml, Sigma-Aldrich) for 2 hours. In comparison 2, incubate murine M2 macrophage in medium containing IL-4 ([…] Guidance System, Cambridge, UK) for 24 hours. The control group of M2 macrophage is incubated in RPMI 1640 (10% FCS) without any drugs. The conditions are shown below in chart 2.
After induced differentiation is complete, use flow cytometry to analyse the macrophage phenotype, in the meantime, also use real time PCR (qPCR) to observe mRNA expression level of each gene.
(§3) FIG. 2˜4 show results of macrophage phenotypes analysed by flow cytometry.

[4] = tested on: monocytes from murine bone marrow; experiment: M-CSF induced M2 polarization of bone marrow monocytes (flow cytometry CD11b, CD206, CD80); type: cell-based; conditions: 50 ng/ml M-CSF, treated for 7 days, p<0.05, FIG. 2
Protocol: as §1, §2, §3

OO [Embodiment H2O2, H2O2]
percentage of apoptotic cells [1]: higher percentage of apoptotic cells

lipopolysaccharide [LPS, reference compound]
MERTK fluorescence distribution of cells after phagocytosing FITC-Latex beads [2]: comparatively weaker | percentage of M1 macrophage (CD86+CD206-) [3]: higher

B1: macrophage colony-stimulating factor (protein, UniProt P09603 33-554, looked up)
Macrophage colony-stimulating …: EEVSEYCSHMIGSGHLQSLQRLIDSQMETSCQITFEFVDQEQLKDPVCYLKKAFLLVQDIMEDTMRFRDNTPNAIAIVQLQELSLRLKSCFTKDYEEHDKACVRTFYETPLQLLEKVKNVFNETKNLLDKDWNIFSKNCNNSFAECSSQDVVTKPDCNCLYPKAIPSSDPASVSPHQPLAPSMAPVAGLTWEDSEGTEGSSLLPGEQPLHTVDPGSAKQRPPRSTCQSFEPPETPVVKDSTIGGSPQPRPSVGAFNPGMEDILDSAMGTNWVPEEASGEASEIPVPQGTELSPSRPGGGSMQTEPARPSNFLSASSPLPASAKGQQPADVTGTALPRVGPVRPTGQDWNHTPQKTDHPSALLRDPPEPGSPRISSLRPQGLSNPSTLSAQPQLSRSHSSGSVLPLGELEGRRSTRDRRSPAEPEGGPASEGAARPLPRFNSVPLTDTGHERQSEGSFSPQLQESVFHLLVPSVILVLLAVGGLLFYRWRRRSHQEPQRADSPLEQPEGSPLTQDDRQVELPV
notes: 50 ng/ml, induces M2 macrophage polarization of monocytes
percentage of cells expressing CD11b and CD206 at the same time (CD11b+CD206+) [4]: highest percentage

B2: IL-4: cytokine, 10 ng/ml, 24 hours, comparison drug to induce differentiation (protein, UniProt P05112 25-153, looked up)
Interleukin-4: HKCDITLQEIIKTLNSLTEQKTLCTELTVTDIFAASKNTTEKETFCRAATVLRQFYSHHEKDTRCLGATAQQFHRHKQLIRFLKRLDRNLWGLAGLNSCPVKEANQSTLENFLERLKTIMREKYSKCSS
percentage of M2 macrophage (CD86-CD206+) [3]: higher
